Data taken from patent publication US20240270758A1, “PYRIDINO-OR PYRIMIDO-CYCLIC COMPOUND, PREPARATION METHOD THEREFOR AND MEDICAL USE THEREOF” (Genfleet Therapeutics (Shanghai) Inc., priority 2021, published 2024).

Key:
Format in all cases: cell-based, human
[1] = tested on: p-ERK in AGS cells (KRAS^G12D mutation); experiment: Cell p-ERK detection assay; conditions: 3 h incubation, HTRF
Protocol: AGS was purchased from ATCC; Cat. NO.: CRL-1739; F12K was purchased from Gibco; Cat. NO.: 21127-022; FBS was purchased from Gibco; Cat. NO.: 10099-141C; Trypsin (containing EDTA) was purchased from Gibco; Cat. NO.: 25200-072; DMSO was purchased from VWRAMRESCO; Cat. NO.: 0231-500ML; 96-well cell culture plate was purchased from Corning; Cat. NO.: 3599; An white background opaque 96-well plate was purchased from Cisbio; Cat. NO.: 66PL96025; Advance ERK phospho-T202/Y204 kit was purchased from Cisbio; Cat. NO.: 64AERPEH; Cell Counters were purchased from CHEMOMETEC; Model NO.: NC-200; microplate reader was purchased from PerkinElmer; Model NO.: Envison.
AGS is an endogenous human gastric adenocarcinoma cell line containing KRAS^G12D mutation, cultured in F12K+10% FBS medium. On the first day of the experiment, cells in the logarithmic growth phase were taken, digested with trypsin (containing EDTA), collected, and counted, and approximately 20,000 cells/well were inoculated in 96-well cell culture plates and cultured overnight in a 5% CO2 incubator. A 1000×3.16-fold gradient concentration stock of the compound was prepared using DMSO, diluted 200-fold into a 5× compound stock using the medium described above, and a 5× compound stock was added to each cell culture well the day after cell inoculating at a final concentration of 1× and a DMSO content of 0.1%. DMSO was used as an experimental control. After the compound was added and the incubation was continued for 3 h, the medium in the culture wells was removed, […] of cell lysis solution (from Advance ERK phospho-T202/Y204 kit, the same below) was added to each well, mixed well and incubated for 30 min, then […] of the mixed solution was transferred to a white background opaque 96-well plate, and another well was taken as a blank well with adding […] of cell lysis solution. After the transfer, […] of p-ERK HTRF antibody mixed solution (from Advance ERK phospho-T202/Y204 kit) was added to each well, after incubation for 4 h, HTRF fluorescence value (RLU) was read by a microplate reader, and p-ERK level inhibition ratio of the compound was calculated IR (%)=(RLU control-RLU compound)/(RLU control-RLU blank)×100%, compound concentration and corresponding cell p-ERK level inhibition ratio were fitted using Prism 8 four-parameter method, and IC50 value was calculated.

[2] = tested on: AGS cells (KRAS^G12D mutation); experiment: Cell proliferation inhibition assay (3D, CellTiter-Glo), AGS; conditions: 3D cell model, 5 days
Text: (§1) AsPC-1 was purchased from ATCC; Cat. NO.: CRL-1682; AGS was purchased from ATCC; Cat. NO.: CRL-1739; RPMI1640 was purchased from Gibco; Cat. NO.: 11875-093 2235123; F12K was purchased from Gibco; Cat. NO.: 21127-022; FBS was purchased from Gibco; Cat. NO.: 10099-141C; Trypsin (containing EDTA) was purchased from Gibco; Cat. NO.: 25200-072; CellTiter Glo-3D was purchased from Progema; Cat. NO.: G9683; 384-well sphere plates were purchased from coming; Cat. NO.: 3830; White background opaque 384-well plates were purchased from coming; Cat. NO.: 3570; Cell Counters were purchased from CHEMOMETEC; Model NO.: NC-200; microplate reader was purchased from PerkinElmer; Model NO.: Envison;
(§2) AsPC-1 is an endogenous human pancreatic cancer cell containing KRAS^G12D mutation, which is cultured in RPMI-1640 medium containing 10% FBS; AGS human gastric cancer cell line containing KRAS^G12D mutation, cultured in F-12K medium containing 10% FBS. Cells in the logarithmic growth phase were taken, digested with trypsin (containing EDTA), harvested and counted, and inoculated with 800 AsPC-1 cells/well or 400 AGS cells/well, respectively, in 384-well sphere plates and cultured overnight at 5% C02 to establish a 3D cell model. A 3.16-fold gradient concentration stock solution of 1000× compound was prepared using DMSO, diluted 100-fold into a 10× compound stock solution using media, and a 10× compound stock solution was added to each cell culture well the day after cell inoculating at a final concentration of 1× with a DMSO content of 0.1%. DMSO was used as an experimental control (control) and culture medium as a blank control (blank). After the addition of compounds, the cells were cultured for 5 days. […] CellTiter-Glo working solution was added to each well, mixed well, and incubated for 30 min. After standing for 30 min at room temperature, 40 μl of the mixed solution was transferred to a white background opaque 384-well plate. Luminescence chemiluminescence value was read on a microplate reader, and the cell proliferation inhibition ratio was calculated, IR (%)=(RLU control-RLU compound)/(RLU control-RLU blank)×100%. XLFit four-parameter method was used to fit the gradient dilution concentration of compounds and the corresponding cell proliferation inhibition ratio, and the IC50 value was calculated. […] Results for exemplary of the example compounds are shown in Table 3 below. - indicates not detected.

[3] = tested on: AsPC-1 cells (KRAS^G12D mutation); experiment: Cell proliferation inhibition assay (3D, CellTiter-Glo), AsPC-1; conditions: 3D cell model, 5 days
Text: as §1, §2

| IC50 [1] [nM] | Compound | IC50 ([1]; Homo sapiens, AGS, 3 h) [nM] | other results |
| --- | --- | --- | --- |
|  | C#Cc1cccc2cc(O)cc(-c3ncc4c(N5C[C@H]6CC[C@@H](C5)N6)nc(OCC56CC(=C)CN5CCC65CC5)nc4c3F)c12 (stereo partly drawn) [Example Z106, 4-(4-((1R,5S)-3,8-diazabicyclo[3.2.1]octan-3-yl)-8-fluoro-2-((6′-methylenetetrahydrospiro[cyclopropane-1,1′-pyrrolizin]-7a′(5′H)-yl)methoxy)pyrido[4,3-d]pyrimidin-7-yl)-5-ethynylnaphthalen-2-ol] | 1.36 | IC50 ([2]; Homo sapiens, AGS, 120 h): 4.6 nM; IC50 ([3]; Homo sapiens, ASPC1, 120 h): 14.7 nM |
|  | C#Cc1cccc2c(O)ccc(-c3ncc4c(N5C[C@H]6CC[C@@H](C5)N6)nc(OCC56CC(=C)CN5CC(=C)C6)nc4c3F)c12 [Example Z208, 4-(4-((1R,5S)-3,8-diazabicyclo[3.2.1]octan-3-yl)-2-((2,6-dimethylenetetrahydro-1H-pyrrolizin-7a(5H)-yl)methoxy)-8-fluoropyrido[4,3-d]pyrimidin-7-yl)-5-ethynylnaphthalen-1-ol] | 9.04 |  |
|  | C#Cc1cccc2cc(N)c(F)c(-c3ncc4c(N5C[C@H]6CC[C@@H](C5)N6)nc(OCC56CC(=C)CN5CC(=C)C6)nc4c3F)c12 [Example Z213, 4-(4-((1R,5S)-3,8-diazabicyclo[3.2.1]octan-3-yl)-2-((2,6-dimethylenetetrahydro-1H-pyrrolizin-7a(5H)-yl)methoxy)-8-fluoropyrido[4,3-d]pyrimidin-7-yl)-5-ethynyl-3-fluoronaphthalen-2-amine] | 62.9 | IC50 ([2]; Homo sapiens, AGS, 120 h): 57.5 nM; IC50 ([3]; Homo sapiens, ASPC1, 120 h): 335 nM |
| 2.9 | C#Cc1cccc2cc(O)cc(-c3ccc4c(N5CC6CCC(C5)N6)nc(OCC56CCCN5CC(=C)C6)nc4c3F)c12 [Example Z99, 4-(4-(1R,5S)-3,8-diazabicyclo[3.2.1]octan-3-yl)-8-fluoro-2-((2-methylenetetrahydro-1H-pyrrolizin-7a(5H)-yl)methoxy)quinazolin-7-yl)-5-ethynylnaphthalen-2-ol] |  | IC50 [2]: 5.2 nM; IC50 [3]: 36.6 nM |
| 612 | C#Cc1cccc2cc(O)cc(-c3ncc4c(N5C[C@H]6CC[C@@H](C5)[C@@H]6O)nc(OC[C@@]56CCCN5C[C@H](F)C6)nc4c3F)c12 [Example Z205-1, (1R,5S,8R)-3-(7-(8-ethynyl-3-hydroxynaphthalen-1-yl)-8-fluoro-2-(((2R,7aS)-2-fluorotetrahydro-1H-pyrrolizin-7a(5H)-yl)methoxy)pyrido[4,3-d]pyrimidin-4-yl)-3-azabicyclo[3.2.1]octan-8-ol] |  |  |
| 93.5 | C#Cc1cccc2cc(O)cc(-c3ncc4c(N5CC6CCC(C6)C5)nc(OC[C@@]56CCCN5C[C@H](F)C6)nc4c3F)c12 [Example Z192, 4-(4-((1R,5S)-3-azabicyclo[3.2.1]octan-3-yl)-8-fluoro-2-(((2R,7aS)-2-fluorotetrahydro-1H-pyrrolin-7a(5H)-yl)methoxy)pyrido[4,3-d]pyrimidin-7-yl)-5-ethynylnaphthalen-2-ol] |  |  |
| 464 | C#Cc1cccc2c(N)ccc(-c3ncc4c(N5CC6CCC(C5)N6)nc(OCC56CC(=C)CN5CC(=C)C6)nc4c3F)c12 [Example Z209] |  |  |
| 206 | C#Cc1cccc2cc(O)cc(-c3ncc4c(N5C[C@H]6CC[C@@H](C5)[C@H]6O)nc(OC[C@@]56CCCN5C[C@H](F)C6)nc4c3F)c12 [Example Z205-2, (1R, 5S, 8S)-3-(7-(8-ethynyl-3-hydroxynaphthalen-1-yl)-8-fluoro-2-(((2R,7aS)-2-fluorotetrahydro-1H-pyrrolizin-7a(5H)-yl)methoxy)pyrido[4,3-d]pyrimidin-4-yl)-3-azabicyclo[3.2.1]octan-8-ol] |  |  |
|  | C#Cc1cccc2cc(O)cc(-c3cc4nc(OCC56CCCN5CC(=C)C6)nc(N5CC6CCC(C5)N6)c4cn3)c12 (stereo not drawn) [Example Z191, 4-(4-(3,8-diazabicyclo[3.2.1]octan-3-yl)-2-((2-methylenetetrahydro-1H-pyrrolizin-7a(5H)-yl)methoxy)pyrido[4,3-d]pyrimidin-7-yl)-5-ethynylnaphthalen-2-ol] | 612 |  |
|  | C#Cc1cccc2cc(O)cc(-c3ncc4c(N5C[C@H]6CC[C@@H](C5)N6)nc(OCC56CC(=C)CN5[C@@H]5C[C@@H]5C6)nc4c3F)c12 (stereo partly drawn) [Example Z26, 4-(4-((1R,5S)-3,8-diazabicyclo[3.2.1]octan-3-yl)-8-fluoro-2-(((1aR,6aR)-4-methylenehexahydrocyclopropa[b]pyrrolizin-5a(3H)-yl)methoxy)pyrido[4,3-d]pyrimidin-7-yl)-5-ethynylnaphthalen-2-ol] | 2.76 |  |
|  | C#Cc1cccc2c(F)c(O)cc(-c3ncc4c(N5CC6CCC(C5)N6)nc(OCC56CC(=C)CN5CC(=C)C6)nc4c3F)c12 [Example Z203, 4-(4-(3,8-diazabicyclo[3.2.1]octan-3-yl)-2-((2,6-dimethylenetetrahydro-1H-pyrrolizin-7a(5H)-yl)methoxy)-8-fluoropyrido[4,3-d]pyrimidin-7-yl)-5-ethynyl-1-fluoronaphthalen-2-ol] | 25.6 |  |
|  | C#Cc1cccc2nc(N)cc(-c3ncc4c(N5CC6CCC(C5)N6)nc(OCC56CC(=C)CN5CC(=C)C6)nc4c3F)c12 [Example Z201, 4-(4-(3,8-diazabicyclo[3.2.1]octan-3-yl)-2-((2,6-dimethylenetetrahydro-1H-pyrrolizin-7a(5H)-yl)methoxy)-8-fluoropyrido[4,3-d]pyrimidin-7-yl)-5-ethynylquinolin-2-amine] | 238 |  |
| 89.7 | C#Cc1cc(F)cc2cccc(-c3ncc4c(N5CC6CCC(C5)N6)nc(OCC56CC(=C)CN5CC(=C)C6)nc4c3F)c12 [Example Z198] |  |  |
|  | C#Cc1c(Cl)ccc2cccc(-c3ncc4c(N5C[C@H]6CC[C@@H](C5)N6)nc(OCC56CC(=C)CN5CC(=C)C6)nc4c3F)c12 [Example Z195, 4-((1R,5S)-3,8-diazabicyclo[3.2.1]octan-3-yl)-7-(7-chloro-8-ethynylnaphthalen-1-yl)-2-((2,6-dimethylenetetrahydro-1H-pyrrolizin-7a(5H)-yl)methoxy)-8-fluoropyrido[4,3-d]pyrimidine] | 162 |  |
|  | C#Cc1cccc2cccc(-c3c(Cl)cc4c(N5C[C@H]6CC[C@@H](C5)N6)nc(OCC56CCCN5CC(=C)C6)nc4c3F)c12 (stereo partly drawn) [Example Z193, 4-((1R,5S)-3,8-diazabicyclo[3.2.1]octan-3-yl)-6-chloro-7-(8-ethynylnaphthalen-1-yl)-8-fluoro-2-((2-methylenetetrahydro-1H-pyrrolizin-7a(5H)-yl)methoxy)quinazoline] | 623 |  |
